Experimental data taken from the NIST ThermoML archive (doi:10.1016/j.jct.2017.04.003).
Numbers after ± are expanded uncertainties.

**Q.** Which Normal melting temperature (Crystal 1, DTA) does the source give for `[Na+].[Na+].[O-][O-]` [sodium peroxide] here?
**A.** Its Normal melting temperature is 666.6 ± 10 °C.

**Q.** What about the Triple point temperature (Crystal 2, DSC) of the same molecule?
**A.** Its Triple point temperature is 756.8 ± 10 K.
